For 6 compounds, IC50, EC50 and Ratio results are on record in ChEMBL document CHEMBL1143624, “1-(5-Chloro-2-alkoxyphenyl)-3-(5-cyanopyrazin-2-yl)ureas [correction of cyanopyrazi] as potent and selective inhibitors of Chk1 kinase: synthesis, preliminary SAR, and biological activities” (J Med Chem, 2005).

One test has as its target T1, Aurora kinase A (Homo sapiens, UniProt O14965).
T1 sequence (O14965 whole entry): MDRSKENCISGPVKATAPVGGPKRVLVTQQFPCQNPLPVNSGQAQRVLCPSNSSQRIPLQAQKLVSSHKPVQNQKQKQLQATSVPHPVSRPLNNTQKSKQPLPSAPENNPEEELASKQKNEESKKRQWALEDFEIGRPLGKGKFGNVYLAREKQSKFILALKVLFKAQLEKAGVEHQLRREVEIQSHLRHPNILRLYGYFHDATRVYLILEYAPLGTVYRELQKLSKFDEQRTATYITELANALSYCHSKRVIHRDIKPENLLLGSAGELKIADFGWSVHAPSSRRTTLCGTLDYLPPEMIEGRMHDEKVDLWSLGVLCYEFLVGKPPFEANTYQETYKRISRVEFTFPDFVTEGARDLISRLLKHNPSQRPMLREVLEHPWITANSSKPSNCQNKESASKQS
In words: Inhibition of Aurora kinase A (Aur1).

For test [1], the target named is MAP/microtubule affinity-regulating kinase 3 (Homo sapiens, UniProt P27448). In words: Inhibition of MAP/microtubule affinity-regulating kinase 3 (cTak1).
Test [2] is described as follows: Inhibition of Protein kinase A (PKA).
In test [3] the target is Mitogen-activated protein kinase 1 (Homo sapiens, UniProt P28482). Description: Inhibition of Extracellular signal-regulated kinase 2 (ERK2).
Test [4] has as its target RAC-alpha serine/threonine-protein kinase (Homo sapiens, UniProt P31749). Description: Inhibition of Protein kinase B, alpha (Akt1).
Test [5] deals with T2, Serine/threonine-protein kinase Sgk1 (Homo sapiens, UniProt O00141).
T2 sequence (O00141 whole entry): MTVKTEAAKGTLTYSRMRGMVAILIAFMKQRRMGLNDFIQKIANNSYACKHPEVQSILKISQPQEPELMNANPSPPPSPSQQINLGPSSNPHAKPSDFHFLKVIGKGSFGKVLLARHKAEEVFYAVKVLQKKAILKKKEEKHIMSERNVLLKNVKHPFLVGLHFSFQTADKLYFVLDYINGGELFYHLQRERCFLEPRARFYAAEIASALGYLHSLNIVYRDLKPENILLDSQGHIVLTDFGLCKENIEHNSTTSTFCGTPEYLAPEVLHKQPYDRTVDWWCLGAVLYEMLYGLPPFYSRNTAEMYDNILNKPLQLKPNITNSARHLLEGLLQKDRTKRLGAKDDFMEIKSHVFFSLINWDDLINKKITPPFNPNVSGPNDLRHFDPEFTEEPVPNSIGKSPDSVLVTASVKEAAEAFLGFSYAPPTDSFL
Description: Inhibition of Serum/glucocorticoid regulated kinase (SGK).

In test [6] the target is T3, Serine/threonine-protein kinase Chk1 (Homo sapiens, UniProt O14757).
T3 sequence (O14757 whole entry): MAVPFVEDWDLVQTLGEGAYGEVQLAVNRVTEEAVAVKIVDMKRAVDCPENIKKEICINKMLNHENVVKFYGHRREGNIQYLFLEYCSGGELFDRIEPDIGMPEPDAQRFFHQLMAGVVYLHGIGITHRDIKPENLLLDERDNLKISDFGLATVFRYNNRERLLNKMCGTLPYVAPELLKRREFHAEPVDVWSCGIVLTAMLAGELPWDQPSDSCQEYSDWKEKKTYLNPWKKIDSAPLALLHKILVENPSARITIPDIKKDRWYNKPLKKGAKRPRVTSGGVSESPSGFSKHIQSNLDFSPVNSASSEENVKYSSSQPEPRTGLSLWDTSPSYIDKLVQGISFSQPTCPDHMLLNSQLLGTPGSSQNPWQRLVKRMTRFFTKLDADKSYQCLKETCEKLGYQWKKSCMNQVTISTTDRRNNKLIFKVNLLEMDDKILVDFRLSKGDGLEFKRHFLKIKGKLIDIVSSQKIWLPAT
Description: Inhibition of Serine/threonine-protein kinase Chk1.

For test [7], the target named is Protein kinase C delta type (Homo sapiens, UniProt Q05655). In words: Inhibition of Protein kinase C delta (PKCdelta).
The nature of test [8]: Inhibition of Protein kinase C gamma (PKCgamma).
In test [9] the test system is HeLa. Description: Anti-proliferative activity against HeLa cells in the presence of 150 nM of doxorubicin. The following applies: Homo sapiens. Type of test: functional, cell-based.
Test [10] relates to HeLa. In words: Anti-proliferative activity against HeLa cells. Type of test: functional, cell-based. The note with it: Homo sapiens.
For test [11], the system named is HeLa. Description: Ratio of antiproliferative activities (EC50) against HeLa Cells to that with 150 nM doxorubicin. The class given is functional, Homo sapiens.
The target of test [12] is Cyclin-dependent kinase 1 (Homo sapiens, UniProt P06493). Description: Inhibition of Serine/threonine kinase Cdc2 (Cdc2).
The target of test [13] is Serine/threonine-protein kinase Chk2 (Homo sapiens, UniProt O96017). In words: Inhibition of Serine/threonine-protein kinase Chk2.
Test [14] concerns SW-620. Description: Concentration required to inhibit growth of SW620 (human colon cancer) cells. The class given is functional, cell-based.
Test [15] concerns SW-620. Description: Concentration required to inhibit growth of SW620 (human colon cancer) cells in the presence of 10 uM of Compound 2e. Type of test: functional, cell-based.

The structures appear in SMILES notation.

Mitogen-activated protein kinase 1, sequence (P28482 whole entry): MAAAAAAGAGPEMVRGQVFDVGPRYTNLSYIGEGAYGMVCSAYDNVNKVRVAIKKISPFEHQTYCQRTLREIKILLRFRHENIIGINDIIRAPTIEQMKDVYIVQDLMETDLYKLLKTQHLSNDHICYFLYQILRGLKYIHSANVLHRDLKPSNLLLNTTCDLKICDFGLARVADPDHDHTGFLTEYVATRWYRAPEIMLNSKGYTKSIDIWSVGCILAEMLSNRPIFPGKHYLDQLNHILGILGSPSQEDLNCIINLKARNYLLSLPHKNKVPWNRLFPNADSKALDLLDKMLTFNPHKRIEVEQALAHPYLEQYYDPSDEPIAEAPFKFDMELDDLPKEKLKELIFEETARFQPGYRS
Protein kinase C delta type, sequence (Q05655 whole entry): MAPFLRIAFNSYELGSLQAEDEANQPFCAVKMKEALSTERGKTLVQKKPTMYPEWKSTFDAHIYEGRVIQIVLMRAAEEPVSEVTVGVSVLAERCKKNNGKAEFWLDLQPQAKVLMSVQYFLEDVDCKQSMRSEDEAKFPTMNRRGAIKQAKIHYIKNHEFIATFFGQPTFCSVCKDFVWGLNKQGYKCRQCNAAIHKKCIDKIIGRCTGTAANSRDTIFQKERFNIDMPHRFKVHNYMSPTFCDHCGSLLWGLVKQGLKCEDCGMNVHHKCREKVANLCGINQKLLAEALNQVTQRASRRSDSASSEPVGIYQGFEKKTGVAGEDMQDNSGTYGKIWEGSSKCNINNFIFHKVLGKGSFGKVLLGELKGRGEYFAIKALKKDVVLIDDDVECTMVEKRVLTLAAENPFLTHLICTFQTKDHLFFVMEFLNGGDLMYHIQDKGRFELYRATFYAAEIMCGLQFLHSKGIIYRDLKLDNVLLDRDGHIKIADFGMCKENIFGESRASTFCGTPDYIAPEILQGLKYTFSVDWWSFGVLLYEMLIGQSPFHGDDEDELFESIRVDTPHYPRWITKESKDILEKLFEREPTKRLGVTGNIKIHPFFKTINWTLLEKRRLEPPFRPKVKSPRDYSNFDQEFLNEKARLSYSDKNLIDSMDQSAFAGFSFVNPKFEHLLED
MAP/microtubule affinity-regulating kinase 3, sequence (P27448 whole entry): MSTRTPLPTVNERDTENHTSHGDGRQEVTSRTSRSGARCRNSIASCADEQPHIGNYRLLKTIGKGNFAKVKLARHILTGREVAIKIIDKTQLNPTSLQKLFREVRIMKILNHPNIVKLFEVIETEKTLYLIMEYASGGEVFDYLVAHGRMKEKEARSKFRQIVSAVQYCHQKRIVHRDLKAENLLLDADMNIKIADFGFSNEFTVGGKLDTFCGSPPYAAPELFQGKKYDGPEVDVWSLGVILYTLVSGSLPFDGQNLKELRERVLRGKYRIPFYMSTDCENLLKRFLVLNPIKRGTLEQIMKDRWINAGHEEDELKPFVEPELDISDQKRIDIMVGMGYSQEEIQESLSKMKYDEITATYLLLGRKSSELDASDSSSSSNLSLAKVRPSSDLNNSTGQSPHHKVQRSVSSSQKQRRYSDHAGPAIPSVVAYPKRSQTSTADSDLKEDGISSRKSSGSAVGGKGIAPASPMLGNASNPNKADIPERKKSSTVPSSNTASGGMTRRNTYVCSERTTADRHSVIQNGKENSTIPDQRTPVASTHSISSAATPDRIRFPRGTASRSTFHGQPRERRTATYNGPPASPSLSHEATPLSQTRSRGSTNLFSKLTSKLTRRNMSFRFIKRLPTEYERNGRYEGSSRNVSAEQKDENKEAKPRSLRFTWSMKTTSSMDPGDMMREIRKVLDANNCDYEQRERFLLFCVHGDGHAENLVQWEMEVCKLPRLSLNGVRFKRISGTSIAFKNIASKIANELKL
RAC-alpha serine/threonine-protein kinase, sequence (P31749 whole entry): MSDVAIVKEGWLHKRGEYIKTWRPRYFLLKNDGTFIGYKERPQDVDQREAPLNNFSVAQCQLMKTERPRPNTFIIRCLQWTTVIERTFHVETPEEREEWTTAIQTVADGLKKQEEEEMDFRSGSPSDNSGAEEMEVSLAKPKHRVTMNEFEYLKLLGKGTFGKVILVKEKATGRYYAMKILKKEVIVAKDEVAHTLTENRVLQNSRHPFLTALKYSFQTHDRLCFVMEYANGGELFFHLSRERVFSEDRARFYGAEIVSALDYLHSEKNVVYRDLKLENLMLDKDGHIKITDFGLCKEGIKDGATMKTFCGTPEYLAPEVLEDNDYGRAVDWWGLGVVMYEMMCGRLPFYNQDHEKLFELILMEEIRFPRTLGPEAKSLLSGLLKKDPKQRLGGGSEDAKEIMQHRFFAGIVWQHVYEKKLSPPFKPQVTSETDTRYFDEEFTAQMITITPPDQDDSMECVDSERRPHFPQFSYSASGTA
Cyclin-dependent kinase 1, sequence (P06493 whole entry): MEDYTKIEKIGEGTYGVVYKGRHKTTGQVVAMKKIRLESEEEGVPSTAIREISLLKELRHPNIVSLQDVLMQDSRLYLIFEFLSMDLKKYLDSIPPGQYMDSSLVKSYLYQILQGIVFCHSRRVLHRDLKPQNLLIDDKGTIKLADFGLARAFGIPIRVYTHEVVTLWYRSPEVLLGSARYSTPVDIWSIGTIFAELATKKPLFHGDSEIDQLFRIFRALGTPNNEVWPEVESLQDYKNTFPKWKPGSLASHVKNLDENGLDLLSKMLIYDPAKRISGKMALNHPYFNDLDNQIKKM
Serine/threonine-protein kinase Chk2, sequence (O96017 whole entry): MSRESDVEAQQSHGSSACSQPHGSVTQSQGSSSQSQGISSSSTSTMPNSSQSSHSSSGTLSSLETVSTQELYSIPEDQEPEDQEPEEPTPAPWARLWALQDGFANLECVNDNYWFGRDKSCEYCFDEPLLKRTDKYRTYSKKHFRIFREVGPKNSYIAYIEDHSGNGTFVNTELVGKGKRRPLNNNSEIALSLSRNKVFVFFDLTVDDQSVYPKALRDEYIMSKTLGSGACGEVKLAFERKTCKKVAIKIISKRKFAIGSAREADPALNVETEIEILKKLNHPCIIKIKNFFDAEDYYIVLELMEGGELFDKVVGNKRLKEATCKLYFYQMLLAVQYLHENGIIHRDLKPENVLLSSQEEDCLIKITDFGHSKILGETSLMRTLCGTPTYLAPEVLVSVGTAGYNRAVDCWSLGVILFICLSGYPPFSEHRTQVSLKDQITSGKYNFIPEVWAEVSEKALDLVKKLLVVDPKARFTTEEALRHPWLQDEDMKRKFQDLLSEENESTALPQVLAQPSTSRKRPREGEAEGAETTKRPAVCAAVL

In the case of `CC1(COc2ccc(Cl)cc2NC(=O)Nc2cnc(C#N)cn2)COC1`, the IC50 against Aurora kinase A was over 10 µM; in test [1] it was over 10000 nM; in test [2], over 50 µM; in [3], over 50 µM; in [4], 9.21 µM; in [5], over 50 µM. For the same compound, the IC50 in test [6] was 7 nM; in test [7], over 50 µM; in test [8], over 50 µM; in test [12] it was over 50 µM. Also, the values for the 50% effective concentration (EC50) in the test with HeLa [9] and with HeLa [10] were 2.6 µM and over 59 µM, respectively. Also, the Ratio in the test on HeLa [11] is reported as over 22.

Turning to `CN1CCC(Oc2ccc(Cl)cc2NC(=O)Nc2cnc(C#N)cn2)CC1`, in test [6], half-maximal inhibition (IC50) was put at 10 nM. The concentration for a half-maximal effect (EC50) in the test with HeLa [9] came out at 10 µM; with HeLa [10], 10.4 µM. The Ratio in the test with HeLa [11] was found to be 1.

The compound `N#Cc1cnc(NC(=O)Nc2cc(Cl)ccc2OC2CCOC2)cn1` (stereo unspecified) yielded a concentration for half-maximal inhibition (IC50) in test [6] of 3 nM. Moreover, the EC50 turned out to be 5 µM in the test on HeLa [9] and 18.7 µM with HeLa [10]. The Ratio with HeLa [11] came out at 3.6.

`CC(CN(C)C)Oc1ccc(Cl)cc1NC(=O)Nc1cnc(C#N)cn1` (stereo unspecified): the IC50 against Aurora kinase A was 3.23 µM; in [1], 1510 nM; in [2] it was over 50 µM; in test [3], over 50 µM; in test [4], over 50 µM; in test [5], over 50 µM. Also, the IC50 in test [6] is 8 nM; in test [13], 2800 nM; in test [7], 50 µM; in [8], 50 µM; in test [12] it was over 50 µM. Further, the half-maximal effective concentration (EC50) in the test on HeLa [9] is 0.4 µM; in the test with HeLa [10] it was 1.5 µM. Besides, the Ratio in the test on HeLa [11] was 3.7.

In turn, `N#Cc1cnc(NC(=O)Nc2cc(Cl)ccc2OC2CCOCC2)cn1` gave a 50% inhibitory concentration (IC50) in test [6] of 5 nM. Besides, the EC50 was 37 µM with HeLa [9] and over 59 µM with HeLa [10]. Also, the Ratio in the test with HeLa [11] is given as over 1.

Take `CC[C@@]1(O)C(=O)OCc2c1cc1n(c2=O)Cc2cc3ccccc3nc2-1` [CAMPTOTHECIN]: the figures for the concentration giving a half-maximal response (EC50) with SW-620 [14] and with SW-620 [15] were 1.2 nM and 0.15 nM, respectively.
